# Laboratory results taken from patent publication US9603859B2, “Methods and products for increasing the rate of healing of tissue wounds” (BRIGHAM YOUNG UNIVERSITY, priority 2011, dated 2017).
# Columns and labels:
# [1] = test system: Mixed-species biofilms of S. aureus and P. aeruginosa; assay: Mixed-species biofilm susceptibility, live/dead staining; type: cell-based; conditions: biofilms grown in collagen-coated plates for 24 hours
# [2] = test system: HaCaT migration; assay: HaCaT migration by ECIS (2D wound healing); type: cell-based, human
# Method: Standard microdilution methods were used to determine minimum inhibitory concentration (MIC) and minimum bactericidal concentration (MBC) of test agents (peptides and peptide-mimics) against drug resistant Staphylococcus. aureus (TCH1516) and Pseudomonas. aeruginosa (PAO1). […] Cytotoxicity of test agents to human immortalized keratinocytes (HaCaTs) was assessed using 3-[4,5-dimethylthiazol-2-yl]-2,5-diphenyl tetrazolium bromide (MTT). Promotion of HaCaT migration by test agents was tested using electric cell-substrate impedance sensing (ECIS®), which induced 2D wound healing. The ability of test agents to stimulate angiogenesis was evaluated using matrigel-induced tube formation of human vein endothelial cells (HUVECs).
# [3] = test system: primary human MSC cells; assay: Wound healing array q-PCR gene expression in mesenchymal stem cells; type: cell-based; conditions: 8 hours treatment
# From the text: To determine the role of synthetic Ceragenins CSA-13, 44 and 90 in wound healing using mesenchymal stem cells (MSC), targeted mRNA panels from SABiosciences, and primary cells from Lonza were selected. Cells were purchased from Lonza.com and used fresh for each test using recommended media and culture conditions. After treatment, mRNA was isolated using Qiagen RNeasy Mini Kit®, and quantified using a NanoDrop 2000® by UV at 260 nm and 260/280 ratio for purity. cDNA was made using a First Strand Kit® from SABiosciences and processed for real time PCR using a kit from the same company for selected analysis of wound healing pathways. Results from q-PCR were uploaded to the SABiosciences site and to Ingenuity.com web site for analysis and pathway mapping. SABiosciences wound healing array plates (Cat# PAHS-121) and innate/acquired immune response plates (PAHS-052) were used. These arrays are fully validated when used as recommended. On day 1, primary human MSC cells were plated at 200,000 cells/well using 6-well plates with 3 ml of recommended media—hMSC Basal Medium+BulletKit (50 ml Growth Supplement, 10 ml L-Glutamine and 0.5 ml Gentamicin Sulfate Amphotercin-B) for 24 hours. Only early passages of cells were used, and never from frozen stock. On day 2, cells were treated with compounds dissolved in DMSO diluted 1:1000 or more to avoid effects of the solvent. Final testing concentration for CSA-13 was 5.0 μM. Treatment lasted 8 hours, and was followed by RNA isolation using QIAGEN RNeasy Mini Kit® (74104). RNA was measured at 260/280 nm using a NanoDrop 2000® and normalized to 2.4 ng per well, cDNA preparation was done using QIAGEN First Strand kit 330401. q-PCR was run as absolute quantification and threshold set at 0.1 units. Dendritic cells were plated at 500,000 cells/well using 24-well plate with 500 ul of Lonza LGM-3 Complete Growth Medium with and without compound. Treatment lasted 8 hours, and was followed by RNA isolation using QIAGEN RNeasy Mini Kit® (74104). RNA was measured at 260/280 nm using NanoDrop2000® and normalized to 2.4 ng per well, cDNA preparation was done using QIAGEN First Strand kit 330401. PCR was run as absolute quantification and threshold set at 0.1 units. For the wound healing array, strong upregulation of growth factors such as HB-EGF and cell migration factors such as MMP1 and CXCL2 were found, indicating a clear potential for CSA as a modulator of wound healing. Additional gene expression data is provided in Tables 1-3 for CSA-13, 44, and 90, respectively.
# [4] = test system: chronic non-healing oral cutaneous fistula; assay: Treatment of chronic non-healing oral cutaneous fistula in a horse; type: in vivo
# From the text: A horse with a chronic non-healing oral cutaneous fistula was first treated with two prior art treatments with no success. The first treatment was with an aqueous spray of Vetericyn (0.007% hypochlorite) for a period of 7 days. […]
# [5] = test system: torn right front shoulder wound; assay: Treatment of torn right front shoulder wound in a horse; type: in vivo; conditions: 0.04% solution in water sprayed twice a day
# Method: This wound occurs commonly in horses and usually takes 3 to 6 months to heal. Typically this wound will result in a significant loss of muscle in the region. This wound was treated twice a day with a 0.04% solution of CSA-44 in water. The tissue treatment composition was applied by spraying sufficient composition to wet the entire surface of the wound.
# [6] = test system: laceration to left hind cannon region; assay: Treatment of laceration to left hind cannon region of a broodmare; type: in vivo; conditions: horse; 0.04% solution in water twice daily; no wrap
# Method: A reining broodmare in Texas was involved in an accident resulting in a laceration to her left hind cannon region. The wound was 3 inches in length and 2 inches wide. The laceration extended all the way to the cannon bone, exposing the periosteum. This wound was also treated with a 0.04% solution of CSA-44 in water twice daily. No wrap was applied (i.e., no immobilization). The wound closed in 11 days with normal hair growth at 30 days. This type of wound would usually require aggressive wraps for 3 months with the possibility of other procedures being necessary for the excessive granulation tissue that commonly develops.
# [7] = test system: scratches (fungal infection of the lower extremities with secondary bacterial infection); assay: Treatment of extreme case of scratches in a horse; type: in vivo
# From the text: A horse with an extreme case of scratches was successfully healed using CSA. Scratches is a fungal infection of the lower extremities in horses. This infection usually results in not only a fungal but also a secondary bacterial infection. In this case, the horse developed severe and debilitating granulation tissue of the ankle resulting in poor mobility due to cracking and bleeding. […] The chronic infection persisted for over two years despite the multiple attempts to treat with an antimicrobial. Due to the debilitating wound the horse was slated for slaughter. […] Normal hair growth and tissue was present in 4 weeks.
# [8] = test system: fungal infection of the skin (summer itch); assay: Treatment of fungal infection of the skin (summer itch) in a show mare; type: in vivo; conditions: horse; 0.04% solution in water twice daily
# From the text: A show mare developed an uncontrollable fungal infection of the skin. This malady is commonly referred to as summer itch. A 0.04% solution of CSA-44 in water was used twice daily for 3 weeks resulting in complete regrowth of normal skin and hair. Normal treatment time periods for this problem usually range from 3 to 4 months.
compound,measurement,setting,value
"LL-37: a human peptide and positive control (LLGDFFRKSKEKIGKEFKRIVQRIKDFLRNLVPRTES; Antibacterial peptide LL-37; UniProt P49913 134-170, looked up)",anti-biofilm activity,[1],showed anti-biofilm activity
same,induction of wound healing,[2],induced wound healing
CCCCCN(CCCCC)CCC[C@@H](C)[C@H]1CC[C@H]2[C@@H]3[C@H](OCCCN)C[C@@H]4C[C@H](OCCCN)CC[C@]4(C)[C@H]3C[C@H](OCCCN)[C@]12C [CSA-90],Fold Regulation ACTA2,[3],−2.5014
same,Fold Regulation ACTB,[3],−2.0745
same,Fold Regulation CCL2,[3],−1.5793
same,Fold Regulation COL4A3,[3],−1.6195
same,Fold Regulation CTGF,[3],−15.7171
same,Fold Regulation CTSK,[3],1.5366
same,Fold Regulation CTSL2,[3],1.6306
same,Fold Regulation EGFR,[3],1.6212
same,Fold Regulation FGF7,[3],5.1689
same,Fold Regulation HGF,[3],2.3334
same,Fold Regulation IFNG,[3],1.839
same,Fold Regulation IGF1,[3],2.2724
same,Fold Regulation ITGA3,[3],−1.5127
same,Fold Regulation ITGB6,[3],1.9381
same,Fold Regulation MMP9,[3],2.5652
same,Fold Regulation SERPINE1,[3],−3.7307
same,Fold Regulation TGFBR3,[3],−1.5938
same,Fold Regulation TIMP1,[3],1.8212
same,Fold Regulation WISP1,[3],−2.3543
same,Fold Regulation ANGPT1,[3]; CSA-13 at 5.0 μM,−1.915
same,Fold Regulation CCL7,[3]; CSA-13 at 5.0 μM,2.2874
same,Fold Regulation CXCL1,[3]; CSA-13 at 5.0 μM,3.1083
same,Fold Regulation CXCL2,[3]; CSA-13 at 5.0 μM,36.5878
same,Fold Regulation F13A1,[3]; CSA-13 at 5.0 μM,2.1032
same,Fold Regulation FGF10,[3]; CSA-13 at 5.0 μM,1.9842
same,Fold Regulation HBEGF,[3]; CSA-13 at 5.0 μM,3.5988
same,Fold Regulation IL2,[3]; CSA-13 at 5.0 μM,1.8522
same,Fold Regulation IL6,[3]; CSA-13 at 5.0 μM,7.2299
same,Fold Regulation IL10,[3]; CSA-13 at 5.0 μM,−1.7382
same,Fold Regulation ITGA2,[3]; CSA-13 at 5.0 μM,14.3637
same,Fold Regulation ITGB3,[3]; CSA-13 at 5.0 μM,−1.538
same,Fold Regulation MMP1,[3]; CSA-13 at 5.0 μM,45.3753
same,Fold Regulation PLAT,[3]; CSA-13 at 5.0 μM,−2.14
same,Fold Regulation PLAUR,[3]; CSA-13 at 5.0 μM,1.9924
same,Fold Regulation PTGS2,[3]; CSA-13 at 5.0 μM,66.6189
same,Fold Regulation VEGFA,[3]; CSA-13 at 5.0 μM,3.3257
CCCCCCCCNCCC[C@@H](C)[C@H]1CC[C@H]2[C@@H]3[C@H](OCCCN)C[C@@H]4C[C@H](OCCCN)CC[C@]4(C)[C@H]3C[C@H](OCCCN)[C@]12C [CSA-13],Fold Regulation ANGPT1,[3]; CSA-13 at 5.0 μM,−2.0046
same,Fold Regulation CCL7,[3]; CSA-13 at 5.0 μM,1.6632
same,Fold Regulation CSF2,[3]; CSA-13 at 5.0 μM,−2.4867
same,Fold Regulation CXCL1,[3]; CSA-13 at 5.0 μM,1.6181
same,Fold Regulation CXCL2,[3]; CSA-13 at 5.0 μM,4.873
same,Fold Regulation CXCL5,[3]; CSA-13 at 5.0 μM,2.0582
same,Fold Regulation F3,[3]; CSA-13 at 5.0 μM,−3.3945
same,Fold Regulation F13A1,[3]; CSA-13 at 5.0 μM,2.0916
same,Fold Regulation FGF2,[3]; CSA-13 at 5.0 μM,−1.633
same,Fold Regulation FGF10,[3]; CSA-13 at 5.0 μM,3.8659
same,Fold Regulation HBEGF,[3]; CSA-13 at 5.0 μM,3.255
same,Fold Regulation IL2,[3]; CSA-13 at 5.0 μM,1.865
same,Fold Regulation IL4,[3]; CSA-13 at 5.0 μM,−1.9944
same,Fold Regulation IL6,[3]; CSA-13 at 5.0 μM,3.1692
same,Fold Regulation IL10,[3]; CSA-13 at 5.0 μM,−1.6166
same,Fold Regulation ITGA2,[3]; CSA-13 at 5.0 μM,3.5659
same,Fold Regulation ITGB3,[3]; CSA-13 at 5.0 μM,−1.5243
same,Fold Regulation MMP1,[3]; CSA-13 at 5.0 μM,4.4172
same,Fold Regulation PLAT,[3]; CSA-13 at 5.0 μM,−2.1487
same,Fold Regulation PLAU,[3]; CSA-13 at 5.0 μM,1.7849
same,Fold Regulation PLAUR,[3]; CSA-13 at 5.0 μM,1.6286
same,Fold Regulation PTGS2,[3]; CSA-13 at 5.0 μM,3.3333
same,Fold Regulation VEGFA,[3]; CSA-13 at 5.0 μM,1.7274
same,Fold Regulation VTN,[3]; CSA-13 at 5.0 μM,2.0612
CCCCCCCCOC(=O)CC[C@@H](C)[C@H]1CC[C@H]2[C@@H]3[C@H](OC(=O)CCN)C[C@@H]4C[C@H](OC(=O)CCN)CC[C@]4(C)[C@H]3C[C@H](OC(=O)CCN)[C@]12C [CSA-44],time to closure of the fistula and healthy tissue,[4]; 0.04% CSA-44 in water sprayed once daily,7 days
same,outcome of wound treatment,"[4]; Vetericyn (0.007% hypochlorite) aqueous spray 7 days, Furacin Salve daily 5 days, 0.04% CSA-44 in water sprayed once daily 7 days",successfully treated
same,muscle loss after healing,[5],without any apparent muscle loss
same,time until wound closed and completely healed,"[5]; wound 4 x 6 inches, 3 inches deep",28 days
same,time of normal hair growth,[6],30 days
same,time until wound closed,[6],11 days
same,time until normal hair growth and tissue present,[7]; 0.04% in water sprayed twice daily,4 weeks
same,outcome of wound treatment,"[7]; CSA-44 0.04% in water sprayed twice daily for four weeks, comparators before CSA",successfully treated
same,treatment time to complete regrowth of normal skin and hair,[8],3 weeks
same,Fold Regulation ACTA2,[3],−1.9377
same,Fold Regulation ACTB,[3],−1.7981
same,Fold Regulation CCL2,[3],−3.1925
same,Fold Regulation CDH1,[3],−2.7158
same,Fold Regulation COL1A2,[3],1.5483
same,Fold Regulation COL3A1,[3],1.7385
same,Fold Regulation COL4A3,[3],−2.4845
same,Fold Regulation CTGF,[3],−24.5295
same,Fold Regulation CTSK,[3],1.6388
same,Fold Regulation CTSL2,[3],1.7924
same,Fold Regulation EGFR,[3],1.5364
same,Fold Regulation FGF7,[3],4.84
same,Fold Regulation HGF,[3],3.1098
same,Fold Regulation IGF1,[3],1.6877
same,Fold Regulation ITGB6,[3],1.6323
same,Fold Regulation MMP9,[3],1.5543
same,Fold Regulation SERPINE1,[3],−2.9618
same,Fold Regulation TGFBR3,[3],−2.0462
same,Fold Regulation TIMP1,[3],1.6126
same,Fold Regulation WISP1,[3],−1.9722
same,Fold Regulation ANGPT1,[3]; CSA-13 at 5.0 μM,−2.0857
same,Fold Regulation CCL7,[3]; CSA-13 at 5.0 μM,2.1961
same,Fold Regulation CSF2,[3]; CSA-13 at 5.0 μM,−1.8551
same,Fold Regulation CXCL2,[3]; CSA-13 at 5.0 μM,14.3964
same,Fold Regulation F13A1,[3]; CSA-13 at 5.0 μM,2.0963
same,Fold Regulation FGF2,[3]; CSA-13 at 5.0 μM,−1.6016
same,Fold Regulation FGF10,[3]; CSA-13 at 5.0 μM,2.2811
same,Fold Regulation HBEGF,[3]; CSA-13 at 5.0 μM,3.5463
same,Fold Regulation IL2,[3]; CSA-13 at 5.0 μM,2.1928
same,Fold Regulation IL6,[3]; CSA-13 at 5.0 μM,4.0387
same,Fold Regulation IL10,[3]; CSA-13 at 5.0 μM,−2.0128
same,Fold Regulation ITGA2,[3]; CSA-13 at 5.0 μM,16.0648
same,Fold Regulation ITGB3,[3]; CSA-13 at 5.0 μM,−1.5802
same,Fold Regulation MMP1,[3]; CSA-13 at 5.0 μM,68.9688
same,Fold Regulation PLAT,[3]; CSA-13 at 5.0 μM,−1.754
same,Fold Regulation PLAU,[3]; CSA-13 at 5.0 μM,1.6131
same,Fold Regulation PLAUR,[3]; CSA-13 at 5.0 μM,2.5454
same,Fold Regulation PTGS2,[3]; CSA-13 at 5.0 μM,48.6907
same,Fold Regulation VEGFA,[3]; CSA-13 at 5.0 μM,4.6052
Dermaseptin S1,anti-biofilm activity,[1],increased in anti-biofilm activity when shortened to the first 15 amino acids
